Reference: ChEMBL document CHEMBL1122319, “Substituted (2-phenoxyphenyl)acetic acids with antiinflammatory activity. 1” (J Med Chem, 1983)

Tests used:
[1] = tested on: Rattus norvegicus; assay: Reduction in paw swelling at 100 mg/kg po dose in rat using adjuvant arthritis test.; format: functional
[2] = species: Rattus norvegicus; assay: Potency relative to [2-(2,4-Dichloro-phenoxy)-phenyl]-acetic acid in rat adjuvant arthritis test; format: functional

| Compound | Reduction [1] | Relative potency [2] |
| --- | --- | --- |
| COc1cc(Cl)ccc1Oc1ccc(C)cc1CC(=O)O | 23 | 0.7 |
| Cc1ccc(Oc2ccc(CC(C)C)cc2Cl)c(CC(=O)O)c1 | 19 | 0.2 |
| Cc1ccc(Oc2ccc(Cl)c(Cl)c2)c(CC(=O)O)c1 | 9 | – |
| CCCCCc1ccc(Oc2ccc(C)cc2CC(=O)O)c(Cl)c1 | 23 | 0.3 |
| Cc1ccc(Oc2ccc(C)cc2CC(=O)O)c(Cl)c1 | 35 | 0.4 |
| Cc1cc(Oc2ccc(Cl)cc2CC(=O)O)cc(C)c1Cl | 23 | – |
| CCCCCCCCc1ccc(Oc2ccc(C)cc2CC(=O)O)c(Cl)c1 | 13% | – |
| Cc1ccc(Oc2ccc(Cl)cc2)c(CC(=O)O)c1 | 9 | 0.7 |
| O=C(O)Cc1cc(Cl)ccc1Oc1ccc(O)cc1Cl | 36 | – |
| COc1ccc(Oc2ccc(Cl)cc2CC(=O)O)c(Cl)c1 | 18 | – |
| OCCc1ccccc1Oc1ccc(Cl)cc1Cl | 32 | 0.7 |
| CCCCCCc1ccc(Oc2ccc(C)cc2CC(=O)O)c(Cl)c1 | 5 | – |
| O=C(O)Cc1ccccc1Oc1ccc([N+](=O)[O-])cc1[N+](=O)[O-] | 0% | – |
| Cc1ccc(Oc2ccccc2F)c(CC(=O)O)c1 | 24 | – |
| O=C(O)Cc1cc(Cl)ccc1Oc1ccccc1F | 21 | – |
| O=C(O)Cc1ccccc1Oc1ccc(Br)cc1Br | 29 | 0.8 |
| O=C(O)Cc1ccccc1Oc1ccc(Cl)c(Cl)c1 | 20 | – |
| CCCCCCCCCCc1ccc(Oc2ccc(C)cc2CC(=O)O)c(Cl)c1 | 9% | – |
| NC(=O)Cc1ccccc1Oc1ccc(Cl)cc1Cl | 33 | 1.3 |
| O=C(O)C(=O)c1ccccc1Oc1ccc(Cl)cc1Cl | 23 | 0.3 |
| Cc1ccc(Oc2cc(O)c(C)cc2CC(=O)O)c(Cl)c1 | 12 | – |
| Cc1ccc(Oc2ccccc2C(F)(F)F)c(CC(=O)O)c1 | 0 | – |
| CC(C(=O)O)c1ccccc1Oc1ccc(Cl)cc1Cl (stereo not given) | 0 | – |
| Cc1cc(Oc2ccc(Cl)cc2CC(=O)O)c(Cl)cc1Cl | 40 | 0.6 |

| Compound | Reduction [1] | Relative potency [2] |
| --- | --- | --- |
| Cc1ccc(Oc2c(Cl)cccc2Cl)c(CC(=O)O)c1 | 16 | – |
| Cc1ccc(Oc2ccc(Cl)cc2Cl)c(CC(=O)O)c1 | 29 | 0.8 |
| O=C(O)Cc1ccccc1Oc1ccc(Cl)cc1 | 0 | – |
| Nc1ccc(Oc2ccccc2CC(=O)O)c(N)c1 | 0% | – |
| Cc1ccc(Oc2cc(C)c(Cl)cc2C)c(CC(=O)O)c1 | 10 | – |
| Cc1ccc(Oc2ccc(Cl)cc2O)c(CC(=O)O)c1 | 26 | – |
| Cc1ccc(Oc2cc(Cl)ccc2C)c(CC(=O)O)c1 | 15 | 0.2 |
| Cc1ccc(Oc2ccc(Cl)cc2C)c(CC(=O)O)c1 | 17 | – |
| COc1ccccc1Oc1ccccc1CC(=O)O | 38 | 0.7 |
| CCCCc1ccc(Cl)c(Oc2ccc(C)cc2CC(=O)O)c1 | 5 | – |
| O=C(O)Cc1ccccc1Oc1c(Cl)cc(Cl)cc1Cl | 23 | – |
| O=C(O)Cc1ccccc1Oc1cccc(Cl)c1Cl | 51 | – |
| Cc1ccc(Oc2ccc(Cl)cc2CC(=O)O)c(C)c1 | 22 | – |
| Cc1ccc(Oc2cc(C)c(Cl)c(C)c2Cl)c(CC(=O)O)c1 | 20 | – |
| Cc1ccc(Oc2cc(Cl)ccc2Cl)c(CC(=O)O)c1 | 32 | 0.4 |
| Nc1ccc(Oc2ccc(Cl)cc2Cl)c(CC(=O)O)c1 | 0 | – |
| O=C(O)Cc1cc(Cl)ccc1Oc1cccc(Cl)c1 | 0 | – |
| O=C(O)Cc1ccccc1Oc1ccccc1C(F)(F)F | 0 | – |
| O=C(O)Cc1ccccc1Oc1cc(Cl)c(Cl)cc1Cl | 17 | – |
| Cc1ccc(Oc2c(C)cc(Cl)cc2C)c(CC(=O)O)c1 | 14 | 0.3 |
| Cc1ccc(Oc2ccccc2CC(=O)O)c(Cl)c1 | 21 | – |
| O=C(O)c1ccccc1Oc1ccc(Cl)cc1Cl | 18 | – |
| Cc1ccc(Oc2ccc(-c3ccccc3)cc2Cl)c(CC(=O)O)c1 | 23 | 0.2 |
| CCCc1ccc(Oc2ccc(C)cc2CC(=O)O)c(Cl)c1 | 27 | 0.6 |

| Compound | Reduction [1] | Relative potency [2] |
| --- | --- | --- |
| Cc1ccc(Oc2ccc(C(C)C)cc2Cl)c(CC(=O)O)c1 | 30 | 1.6 |
| Cc1ccc(Oc2ccccc2Cl)c(CC(=O)O)c1 | 12 | – |
| Cc1ccc(Oc2ccc(C)cc2CC(=O)O)c(C)c1 | 20 | – |
| Cc1ccc(Oc2cc(C)c(Cl)cc2Cl)c(CC(=O)O)c1 | 45 | 0.4 |
| Cc1cc(Oc2ccccc2CC(=O)O)c(Cl)cc1Cl | 19 | – |
| CCc1ccc(Oc2ccc(C)cc2CC(=O)O)c(CC)c1 | 8 | – |
| CCCCCCCCCCCc1ccc(Oc2ccc(C)cc2CC(=O)O)c(Cl)c1 | 14% | – |
| O=C(O)Cc1ccccc1Oc1ccccc1 | 0 | – |
| Cc1ccc(Oc2cccc(Cl)c2C)c(CC(=O)O)c1 | 20 | 0.3 |
| Cc1ccc(Oc2cccc(Cl)c2Cl)c(CC(=O)O)c1 | 13 | – |
| CCc1ccc(Oc2ccccc2CC(=O)O)c(Cl)c1 | 32 | 0.7 |
| Cc1ccc(Oc2ccc(Cl)c(C)c2)c(CC(=O)O)c1 | 9 | – |
| Cc1ccc(Oc2cc(C)c(Cl)cc2C(C)C)c(CC(=O)O)c1 | 3 | – |
| O=C(O)Cc1cc(Cl)ccc1Oc1ccccc1Cl | 0 | – |
| Cc1ccc(Oc2cc(C)cc(C)c2C)c(CC(=O)O)c1 | 11 | 0.1 |
| Cc1cc(Oc2ccc(Cl)cc2CC(=O)O)c(Cl)c(C)c1Cl | 41 | 1 |
| O=C(O)Cc1cc([N+](=O)[O-])ccc1Oc1ccc(Cl)cc1Cl | 9% | – |
| O=C(O)Cc1cc(Cl)ccc1Oc1ccccc1 | 0 | – |
| COc1ccc(Oc2ccc(Cl)cc2Cl)c(CC(=O)O)c1 | 3 | – |
| O=C(O)Cc1cc(Cl)ccc1Oc1ccc(Cl)cc1Cl | 37 | 1 |
| Cc1cc(Cl)ccc1Oc1ccc(Cl)cc1CC(=O)O | 7 | – |
| Cc1ccc(Oc2ccc(Cl)cc2CC(=O)O)c(Cl)c1 | 10 | – |
| Cc1ccc(Oc2c(C)cc(Cl)cc2Cl)c(CC(=O)O)c1 | 23 | 0.3 |
| O=C(O)Cc1ccc(Oc2ccc(Cl)cc2Cl)cc1 | 2 | – |

| Compound | Reduction [1] | Relative potency [2] |
| --- | --- | --- |
| Cc1ccc(Oc2cc(C)c(Cl)c(C)c2)c(CC(=O)O)c1 | 5 | 0.7 |
| Cc1cc(Cl)c(Oc2ccc(Cl)cc2CC(=O)O)cc1C | 22 | – |
| O=C(O)Cc1cc([N+](=O)[O-])c([N+](=O)[O-])cc1Oc1ccc(Cl)cc1Cl | 8% | – |
| CCCCCCCCCc1ccc(Oc2ccc(C)cc2CC(=O)O)c(Cl)c1 | 8% | – |
| CCCCOc1ccc(CC(=O)O)c(Oc2ccc(C)cc2Cl)c1 | 0 | – |
| Cc1ccc(Oc2ccccc2CC(=O)O)c(C)c1 | 20 | – |
| Cc1cc(Oc2ccccc2CC(=O)O)c(Cl)c(C)c1Cl | 34 | 1.2 |
| Cc1cc(Cl)ccc1Oc1ccccc1CC(=O)O | 0 | – |
| Cc1ccc(Oc2ccc(O)cc2CC(=O)O)c(Cl)c1 | 10 | – |
| Cc1ccc(Oc2cc(C(F)(F)F)ccc2Cl)c(CC(=O)O)c1 | 29 | 3 |
| O=C(O)Cc1ccccc1Oc1ccc([N+](=O)[O-])cc1Cl | 19% | – |
| Cc1ccc(Oc2ccc(N)cc2CC(=O)O)c(Cl)c1 | 3 | – |
| O=C(O)Cc1cc(Cl)ccc1Oc1ccc(Cl)cc1 | 21 | – |
| Cc1ccc(Oc2c(C)cccc2Cl)c(CC(=O)O)c1 | 26 | 0.5 |
| CCOC(=O)Cc1ccccc1Oc1ccc(Cl)cc1Cl | 34 | 0.5 |
| O=C(O)Cc1ccccc1Oc1c(Cl)cccc1Cl | 20 | – |
| CN(C)c1ccc(Oc2ccc(Cl)cc2Cl)c(CC(=O)O)c1 | 5 | – |
| O=C(O)Cc1ccccc1Oc1cc(Cl)ccc1Cl | 18 | – |
| O=C(O)Cc1cc(Cl)ccc1Oc1cc(Cl)ccc1Cl | 40 | 1 |
| Cc1ccc(Oc2ccc(C(F)(F)F)cc2CC(=O)O)c(Cl)c1 | 0 | – |
| O=C(O)CCc1ccccc1Oc1ccc(Cl)cc1Cl | 0 | – |
| O=C(O)Cc1ccccc1Oc1ccc(Cl)cc1[N+](=O)[O-] | 4% | – |
